Target: T1, RXRalpha (Homo sapiens, UniProt P19793)
T1 construct: expressed in transfected cells; host or cells: Cos7 monkey kidney cells
T1 sequence (P19793 1-462): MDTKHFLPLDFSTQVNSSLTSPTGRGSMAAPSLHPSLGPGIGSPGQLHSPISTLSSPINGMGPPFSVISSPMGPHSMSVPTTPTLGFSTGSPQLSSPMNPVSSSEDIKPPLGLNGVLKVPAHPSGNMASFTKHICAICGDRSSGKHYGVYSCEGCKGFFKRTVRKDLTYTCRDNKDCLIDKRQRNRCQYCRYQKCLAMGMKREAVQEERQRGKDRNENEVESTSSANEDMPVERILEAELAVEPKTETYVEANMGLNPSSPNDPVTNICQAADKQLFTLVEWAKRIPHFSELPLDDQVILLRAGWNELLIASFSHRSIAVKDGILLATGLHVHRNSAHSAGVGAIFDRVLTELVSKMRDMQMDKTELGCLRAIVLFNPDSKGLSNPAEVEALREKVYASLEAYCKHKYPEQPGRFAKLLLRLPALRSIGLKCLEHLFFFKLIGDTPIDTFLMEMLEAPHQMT
Assay: RXR antagonist transactivation test (cotransfection pSG5-RXRalpha / CRBPII-tk-Luc, luciferase)
Type: cell-based
Settings: Cos7 cells; for inhibition at 1 µM: COS-7, test compound at 10^−6M final, 3 nM reference agonist, treatment 18 h, luciferase activity, read-out: % of inhibition of the induction obtained with the agonist alone; for IC50: in the presence of 3 nM agonist 6-[1-(3,5,5,8,8-pentamethyl-5,6,7,8-tetrahydro-2-naphthalenyl)cyclopropyl]nicotinic acid, 5 concentrations 10^−5 to 10^−9 M, read-out: IC50 (dose required to achieve 50% inhibition of the agonist activity)
Excerpt: a) Determination of the IC50 values of the antagonist compounds
The dose-response curve obtained makes it possible to determine the IC50 value which is specific to the compound.
b) Test of RXR Antagonist Transactivation
The properties of inhibition of the activation of the RXR response elements (RXRE) can be determined by recognized methods of the art.
The receptor expression plasmid pSG5-RXRalpha and the reporter plasmid CRBPII-tk-Luc are introduced into the Cos7 monkey kidney cell line by the method of coprecipitation with calcium phosphate described in Molecular Cloning: A laboratory manual (Sambrook et al. eds. Cold Spring Harbor Lab. Publ. 1989). […] The test compound is added at 10^−6M final. After treatment for 18 h, the cells are rinsed with PBS and lysed in 0.1M KPO4 (pH 7.8), 1.0% Triton X100, 1.0 mM DTT, 1 mM EDTA. The luciferase activity of the cell lysatesis measured as described by deWet et al. in Mol. Cell. Biol. 7:725 (1987).

Row | inhibition at 1 µM [%] | IC50 [nM] | SMILES
1 | 57 | 671 | CCCOc1cc2c(cc1[Se]C#CC(C)=CC(=O)O)C(C)(C)CCC2(C)C [EXAMPLE 10, 3-Methyl-5-(5,5,8,8-tetramethyl-3-propoxy-5,6,7,8-tetrahydronaphthalen-2-ylselenyl)pent-2-en-4-ynoic Acid]
2 | 61 | 471 | COCOc1cc([Se]C#CC(C)=CC(=O)O)cc2c1C(C)(C)CCC2(C)C [EXAMPLE 14, 5-(4-Methoxymethoxy-5,5,8,8-tetramethyl-5,6,7,8-tetrahydronaphthalen-2-ylselenyl)-3-methylpent-2-en-4-ynoic Acid]
3 | 92 | 71 | CCCOc1cc([Se]C#CC(C)=CC(=O)O)cc2c1C(C)(C)CCC2(C)C [EXAMPLE 12, 3-Methyl-5-(5,5,8,8-tetramethyl-4-propoxy-5,6,7,8-tetrahydronaphthalen-2-ylselenyl)pent-2-en-4-ynoic Acid]

— patent US6921777B2, “Heteroethynylenic compounds and pharmaceutical and cosmetic compositions containing them” (Galderma Research & Development, S.N.C., priority 1998, dated 2005)
